{
  "source": "patent US10053455B2",
  "about": "“Diazaspiroalkaneone-substituted oxazole derivatives as spleen tyrosine kinase inhibitors” (AB SCIENCE, priority 2014, dated 2018)",
  "key": {"[1]": {"tested_on": "Salmonella typhimurium strain TA100", "method": "(§1) Mutagenic activity of test compounds and their metabolites (produced by rat liver S9 fraction) was evaluated in the Salmonella typhimurium strains TA100 and TA98 according to the Ames assay (Toxicology in vitro, (2001), 15: 105-114). […] The results are expressed as a mutagenicity ratio in comparison to solvent controls.\n(§2) The results are expressed as a ratio of the number of colonies over the number of colonies in the negative control (DMSO)."}, "KIT wild-type": {"target": "KIT wild-type (Homo sapiens (Human), UniProt P10721)", "sequence (P10721 26-976, species assumed)": "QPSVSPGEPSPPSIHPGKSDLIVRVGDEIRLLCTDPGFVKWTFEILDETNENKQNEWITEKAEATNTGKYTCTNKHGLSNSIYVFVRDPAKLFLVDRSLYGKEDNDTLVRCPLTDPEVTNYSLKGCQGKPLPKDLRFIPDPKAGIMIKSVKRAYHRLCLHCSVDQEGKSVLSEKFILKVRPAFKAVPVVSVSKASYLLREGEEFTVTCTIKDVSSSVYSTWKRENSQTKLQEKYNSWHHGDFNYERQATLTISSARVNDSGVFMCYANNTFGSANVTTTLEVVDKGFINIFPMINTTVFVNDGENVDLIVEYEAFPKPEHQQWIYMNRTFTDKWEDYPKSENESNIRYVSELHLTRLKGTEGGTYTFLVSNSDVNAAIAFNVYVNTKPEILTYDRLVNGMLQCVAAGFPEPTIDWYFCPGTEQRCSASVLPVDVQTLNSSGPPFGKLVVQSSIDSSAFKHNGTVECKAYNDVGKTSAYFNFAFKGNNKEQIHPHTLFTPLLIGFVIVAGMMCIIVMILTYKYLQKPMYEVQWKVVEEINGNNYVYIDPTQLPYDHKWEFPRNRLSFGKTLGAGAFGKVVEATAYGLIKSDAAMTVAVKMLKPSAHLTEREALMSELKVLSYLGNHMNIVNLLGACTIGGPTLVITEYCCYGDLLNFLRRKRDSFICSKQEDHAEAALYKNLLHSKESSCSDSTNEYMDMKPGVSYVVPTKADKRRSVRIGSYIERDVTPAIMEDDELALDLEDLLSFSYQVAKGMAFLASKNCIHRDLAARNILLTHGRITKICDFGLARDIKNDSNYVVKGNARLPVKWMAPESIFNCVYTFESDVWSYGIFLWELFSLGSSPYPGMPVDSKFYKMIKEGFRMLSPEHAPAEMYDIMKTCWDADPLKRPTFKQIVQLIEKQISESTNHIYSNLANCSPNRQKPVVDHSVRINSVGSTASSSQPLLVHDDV", "assay": "Cell-based proliferation assay on BaF3 model, KIT wild-type", "method": "Cell-based proliferation and viability assay CellTiter-Bleue cell-based survival/proliferation assay (Promega G8080) was performed on BaF3 models.\nA total of 1.10^4 cells/well/50 μl were seeded in a 96-wells plate. Treatment was initiated by addition of a 2× drug solution of ½ serial dilutions ranging from 0 to 10 μM. Cells were grown for 48-72 h at 37° C. and then incubated with 10 μl/well of Promega CellTiter-Bleue reagent for 4 h at 37° C. The amount of formazan dye formed was quantified by its absorbance at 450 nm using a scanning multiwell spectrophotometer (POLARstar Omega, BMG labtech, France). A blank well without cells was used as a background control for the spectrophotometer and all assays were performed in duplicates and the experiments were repeated at least twice."}, "[2]": {"tested_on": "Salmonella typhimurium strain TA98", "assay": "AMES mutagenic assay, TA98 strain", "method": "as §1, §2"}, "[3]": {"settings": "TA98, absence of S-9, 0.5 μg per well"}, "[4]": {"settings": "TA98, absence of S-9, 1.4 μg per well"}, "[5]": {"settings": "TA98, absence of S-9, 4.1 μg per well"}, "[6]": {"settings": "TA98, absence of S-9, 12.3 μg per well"}, "[7]": {"settings": "TA98, absence of S-9, 37 μg per well"}, "[8]": {"settings": "TA98, absence of S-9, 111.1 μg per well"}, "[9]": {"settings": "TA98, absence of S-9, 333.3 μg per well"}, "[10]": {"settings": "TA98, absence of S-9, 1000 μg per well"}, "[11]": {"settings": "TA98, presence of S-9, 0.5 μg per well"}, "[12]": {"settings": "TA98, presence of S-9, 1.4 μg per well"}, "[13]": {"settings": "TA98, presence of S-9, 4.1 μg per well"}, "[14]": {"settings": "TA98, presence of S-9, 12.3 μg per well"}, "[15]": {"settings": "TA98, presence of S-9, 37 μg per well"}, "[16]": {"settings": "TA98, presence of S-9, 111.1 μg per well"}, "[17]": {"settings": "TA98, presence of S-9, 333.3 μg per well"}, "[18]": {"settings": "TA98, presence of S-9, 1000 μg per well"}},
  "data": [
    {"compound": "Cc1ccnc(Nc2cccc(-c3cnc(N4CCNC(=O)C45CC5)o3)c2)n1", "note": "[Compound 001, 4-{5-[3-(4-Methyl-pyrimidin-2-ylamino)-phenyl]-oxazol-2-yl}-4,7-diaza-spiro[2.5]octan-8-one]", "values": [
      {"measurement": "mutagenic activity", "setting": "[1]", "result": "did not show any mutagenic activity"},
      {"measurement": "IC50", "setting": "KIT wild-type", "result": 10, "unit": "µM"},
      {"measurement": "Mean revertant colony counts", "setting": "[2]; [3]", "result": 7.3},
      {"measurement": "Ratio treated/solvent", "setting": "[2]; [3]", "result": 1.7},
      {"measurement": "Mean revertant colony counts", "setting": "[2]; [4]", "result": 4.3},
      {"measurement": "Ratio treated/solvent", "setting": "[2]; [4]", "result": 1.0},
      {"measurement": "Mean revertant colony counts", "setting": "[2]; [5]", "result": 6.3},
      {"measurement": "Ratio treated/solvent", "setting": "[2]; [5]", "result": 1.5},
      {"measurement": "Mean revertant colony counts", "setting": "[2]; [6]", "result": 5.3},
      {"measurement": "Ratio treated/solvent", "setting": "[2]; [6]", "result": 1.2},
      {"measurement": "Mean revertant colony counts", "setting": "[2]; [7]", "result": 8.3},
      {"measurement": "Ratio treated/solvent", "setting": "[2]; [7]", "result": 1.9},
      {"measurement": "Mean revertant colony counts", "setting": "[2]; [8]", "result": 6.3},
      {"measurement": "Ratio treated/solvent", "setting": "[2]; [8]", "result": 1.5},
      {"measurement": "Mean revertant colony counts", "setting": "[2]; [9]", "result": 4.3},
      {"measurement": "Ratio treated/solvent", "setting": "[2]; [9]", "result": 1.0},
      {"measurement": "Mean revertant colony counts", "setting": "[2]; [10]", "result": 3.7},
      {"measurement": "Ratio treated/solvent", "setting": "[2]; [10]", "result": 0.8},
      {"measurement": "Mean revertant colony counts", "setting": "[2]; [11]", "result": 10.3},
      {"measurement": "Ratio treated/solvent", "setting": "[2]; [11]", "result": 3.9},
      {"measurement": "Mean revertant colony counts", "setting": "[2]; [12]", "result": 7.3},
      {"measurement": "Ratio treated/solvent", "setting": "[2]; [12]", "result": 2.8},
      {"measurement": "Mean revertant colony counts", "setting": "[2]; [13]", "result": 9.3},
      {"measurement": "Ratio treated/solvent", "setting": "[2]; [13]", "result": 3.5},
      {"measurement": "Mean revertant colony counts", "setting": "[2]; [14]", "result": 6.7},
      {"measurement": "Ratio treated/solvent", "setting": "[2]; [14]", "result": 2.5},
      {"measurement": "Mean revertant colony counts", "setting": "[2]; [15]", "result": 5.7},
      {"measurement": "Ratio treated/solvent", "setting": "[2]; [15]", "result": 2.1},
      {"measurement": "Mean revertant colony counts", "setting": "[2]; [16]", "result": 7.3},
      {"measurement": "Ratio treated/solvent", "setting": "[2]; [16]", "result": 2.8},
      {"measurement": "Mean revertant colony counts", "setting": "[2]; [17]", "result": 6.3},
      {"measurement": "Ratio treated/solvent", "setting": "[2]; [17]", "result": 2.4},
      {"measurement": "Mean revertant colony counts", "setting": "[2]; [18]", "result": 5.0},
      {"measurement": "Ratio treated/solvent", "setting": "[2]; [18]", "result": 1.9},
      {"measurement": "mutagenic activity", "setting": "[2]; TA98, with or without liver metabolic activation system (S9 mix)", "result": "did not show any mutagenic activity"}
    ]}
  ]
}
